Assay results published in US20150057266A1 (AbbVie Inc., priority 2005, published 2015).

Assay: intrinsic solubility (aqueous medium/lower pH)
Assay type: physicochemical

intrinsic solubility: 0.0423 µg/mL
SMILES: Cc1cccc(Nc2ccccc2C(=O)O)c1C [mefanamic acid]
